Assay in all cases: MIC of clinical antifungals, CLSI M38-A2 broth microdilution
Type in all cases: cell-based
On the technique in general: Dilution methods test growth across graded concentrations, often in twofold steps.

In one assay the test system is Candida krusei ATCC 6258. The conditions noted are these: Pichia kudriavzevii; for MIC50 / MIC80: ATCC6258, RPMI-1640; for MIC: ATCC6258, RPMI-1640, read-out: MIC100. As to the method:
(§1) Two Candida spp. strains (C. krusei ATCC6258 & C. parapsilosis ATCC22019) and Exophiala jeanselmei reference strain NCPF2377 were also tested. These acted as quality control strains. Flat-bottomed Nunc Plates were prepared containing a serial doubling dilution of antifungals at 2× final concentration. […] These were incubated at 35° C. and read at 24 h and 48 h (Candida spp.) or 120 h (Exophiala spp.) on a BioTek plate reader at 530 nm. • 7. Culture of Candida spp. grown on Sabouraud dextrose agar slope overnight at 30° C. • 8. Exophiala cultures grown on potato dextrose agar slope for 6 days at 35° C. • 9. Cultures were removed from incubator and 2 ml sterile 0.15M NaCl was added to the overnight culture and spore and hyphal suspensions were harvested from the surface of the agar and transferred to a sterile plastic bijou tube. • a. Exophiala spp. cultures were allowed to rest for up to 10 min, allowing hyphae to settle to the bottom. The top layers of spores were transferred to a sterile plastic bijou tube. • 10. […] This is continued to A12 where 100 μl is removed and discarded. • f. This dilution series was repeated in rows B-D for the remaining 3 cultures • g. 0.5 McFarland Standard added to wells E1-E3 • h. Plate read at OD530 on BioTek. • i. Concentration of cells required will be the one that is the equivalent to the 0.5 McFarland Standard • 11. […] • 7. The highest final concentration on the plate will be as described in layouts at the end of the protocol. […] Wells A1-A3 and A7-A9 are prepared by the addition of 200 μl highest concentration of compound to the wells. • 10. All other wells contain 100 μl sterile dH2O. • 11. Serial dilutions are carried out from A1-A3 to B1-B3 whereby 100 μl is removed from A1-A3 and placed into B1-B3 and mixed well by pipetting. Then take 100 μl B1-B3 and place in C1-C3 and mix well. Take 100 μl from C1-C3 and add to D1-D3 and mix well. […] At H1-[…] μl is removed and added to A4-A6. The dilution series is carried down the plate in the same manner to wells G4-G6 where a final 100 μl is removed and discarded. H4-H6 contain water alone and will be untreated controls. • 12. The same procedure is repeated for the wells in columns A7-A9 and A10-A12. See plate layout at bottom of page. Inoculating Plates with Candida spp./Exophiala spp. • 5. […] Plates are read in the BioTek at OD530 nm. • 7. Plates are then placed in a plastic box which contains either a Petri dish of water. The box is sealed and incubated at 35° C. (Exophiala spp.) or 30° C. (Candida spp.). The presence of the water in the dish or on the tissue provides and environment of relatively high humidity. • 8. The OD530 of the Candida spp. plates are read after 24 h and 48 h, while the slower growing Exophiala spp. plates are read after 96 h and 120 h. • 9. Raw BioTek data is transformed using Gen5 software and represented graphically using GraphPad Prism 4 software and MICs determined.

Assay [1] relates to Candida parapsilosis ATCC 22019. Particulars: Lodderomyces parapsilosis; for MIC50 / MIC80: ATCC22019, RPMI-1640; for MIC: ATCC22019, RPMI-1640, read-out: MIC100. As to the method:
as §1

Assay [2] relates to Exophiala dermatitidis CA01. The conditions noted are these: RPMI-1640, 35° C.; for MIC: read-out: MIC100. As to the method: as §1
The subject of assay [3] is Exophiala jeanselmei NCPF 2377. The conditions noted are these: NCPF2377, RPMI-1640, 35° C.; for MIC: read-out: MIC100. As to the method:
as §1

As for `CC[C@H](C)C[C@H](C)CCCCCCCCC(=O)N[C@H]1C[C@@H](O)[C@@H](NCCN)NC(=O)[C@@H]2[C@@H](O)CCN2C(=O)[C@H]([C@H](O)CCN)NC(=O)[C@H]([C@H](O)[C@@H](O)c2ccc(O)cc2)NC(=O)[C@@H]2C[C@@H](O)CN2C(=O)[C@H]([C@@H](C)O)NC1=O` [Caspofungin], the MIC50 with Candida krusei ATCC 6258 worked out at 0.5 µg/mL; in assay [1], 1 µg/mL; in assay [2], 16 µg/mL; in assay [3], 0.125 µg/mL. Besides, the MIC80 in the assay on Candida krusei ATCC 6258 was 1 µg/mL; in assay [1], 2 µg/mL; in assay [2], 32 µg/mL; in assay [3] it was 64 µg/mL. Moreover, the MIC in the assay on Candida krusei ATCC 6258 is 1 µg/mL; in assay [1], 64 µg/mL; in assay [2], 32 µg/mL; in assay [3], more than 64 µg/mL.

As for `OC(Cn1cncn1)(Cn1cncn1)c1ccc(F)cc1F` [Fluconazole], the MIC50 worked out at 31.2 µg/mL with Candida krusei ATCC 6258, 0.5 µg/mL in assay [1], 250 µg/mL in assay [2] and 250 µg/mL in assay [3]. Besides, the MIC80 came out at 62.5 µg/mL in the assay on Candida krusei ATCC 6258, 1 µg/mL in assay [1], 500 µg/mL in assay [2] and 500 µg/mL in assay [3]. In addition, the MIC amounted to 62.5 µg/mL in the assay with Candida krusei ATCC 6258, 3.9 µg/mL in assay [1], 500 µg/mL in assay [2] and 1000 µg/mL in assay [3].

As to `CCC(C)n1ncn(-c2ccc(N3CCN(c4ccc(OCC5COC(Cn6cncn6)(c6ccc(Cl)cc6Cl)O5)cc4)CC3)cc2)c1=O` (stereo not drawn) [Itraconazole], the MIC50 in the assay with Candida krusei ATCC 6258 amounted to 0.004 µg/mL; in assay [1], 0.008 µg/mL; in assay [2] it was 2 µg/mL; in assay [3], 0.125 µg/mL. The MIC80 was 0.125 µg/mL in the assay on Candida krusei ATCC 6258, 0.016 µg/mL in assay [1], more than 32 µg/mL in assay [2] and 0.25 µg/mL in assay [3]. For the same compound, the MIC in the assay on Candida krusei ATCC 6258 was 0.25 µg/mL; in assay [1], 0.125 µg/mL; in assay [2], more than 32 µg/mL; in assay [3], 0.25 µg/mL.

As usually defined, the MIC50 is an inhibitory concentration at the 50% level, which refers to growth in some studies and to a panel of isolates in others. By MIC80 is commonly meant an inhibitory concentration at the 80% level, which refers to growth in some studies and to a panel of isolates in others.
